Test results taken from US6703042B1, “Salts of L-carnitine and lower alkanoyl L-carnitine” (Sigma-Tau Industries Farmaceutiche Riunite S.p.A., priority 1999, dated 2004).
Where a name gives a salt, the structure may show the parent alone.

What was measured:
[1] = Hygroscopicity: increase in weight and appearance after exposure to humidity; type: physicochemical; conditions: exposure to 70±5% relative humidity, at 25° C. for 24 hours
[2] = Hygroscopicity of the solid as stated in the preparation examples; type: physicochemical
[3] = background statement; cited from earlier work

Molecule | Appearance [1] | Increase in weight (%) [1] | Hygroscopicity of the solid [2] | Hygroscopicity (known salts, prior art) [3]
CCC(=O)O[C@H](CC(=O)O)C[N+](C)(C)C.[Cl-] [Propionyl-L-carnitine chloride, reference compound] | deliquescent | 15% |  | 
Acetyl L-carnitine L-isoleucinate hydrochloride [Example 1] | no variation | 0.2% | non-hygroscopic | 
Acetyl L-carnitine L-glutamate Hydrochloride [Example 6] | no variation | 0.4% | non-hygroscopic | 
Acetyl L-carnitine L-asparaginate Hydrochloride [Example 9] | no variation | 0.3% | non-hygroscopic | 
Acetyl L-carnitine L-cysteinate Hydrochloride [Example 4] | no variation | 0.6% | non-hygroscopic | 
CC(=O)O[C@H](CC(=O)[O-])C[N+](C)(C)C [Acetyl-L-carnitine inner salt, reference compound] | deliquescent | 19% | Very Hygroscopic | 
Acetyl L-carnitine L-arginate Hydrochloride [Example 5] | no variation | 0.45% | non-hygroscopic | 
C[N+](C)(C)C[C@H](O)CC(=O)[O-] [L-carnitine inner salt, reference compound] | deliquescent | 23% |  | 
L(−)-carnitine acid fumarate |  |  |  | non-hygroscopic
Acetyl L-carnitine L-glutaminate Hydrochloride [Example 7] | no variation | 0.6% | non-hygroscopic | 
Acetyl L-carnitine L-aspartate Hydrochloride [Example 8] | no variation | 0.7% | non-hygroscopic | 
C[N+](C)(C)C[C@H](O)CC(=O)O.C[N+](C)(C)C[C@H](O)CC(=O)O.O=C([O-])C(O)C(O)C(=O)[O-] [L(−)-carnitine tartrate] |  |  |  | non-hygroscopic
Cl.N[C@@H](CS)C(=O)O [L-cysteine Hydrochloride] |  |  | Very Hygroscopic | 
CC(=O)O[C@H](CC(=O)O)C[N+](C)(C)C.[Cl-] [Acetyl-L-carnitine chloride, reference compound] | clumped mass | 8% |  | 
CC(=O)O[C@H](CC(=O)O)C[N+](C)(C)C.O=C([O-])/C=C/C(=O)O [acetyl L(−)-carnitine acid fumarate] |  |  |  | strongly hygroscopic
